Source: patent EP0165781A1, “Aromatase inhibiting N-substituted imidazole derivatives” (ELI LILLY AND COMPANY, priority 1984, dated 1985)

Biological target: T1, aromatase (Rattus norvegicus, UniProt P22443)
T1 construct: ovarian microsomes are obtained from rats treated with pregnant mares serum gonadotropin; from tissue; host or cells: ovarian microsomes of rats treated with pregnant mares serum gonadotropin
T1 sequence (P22443 1-508): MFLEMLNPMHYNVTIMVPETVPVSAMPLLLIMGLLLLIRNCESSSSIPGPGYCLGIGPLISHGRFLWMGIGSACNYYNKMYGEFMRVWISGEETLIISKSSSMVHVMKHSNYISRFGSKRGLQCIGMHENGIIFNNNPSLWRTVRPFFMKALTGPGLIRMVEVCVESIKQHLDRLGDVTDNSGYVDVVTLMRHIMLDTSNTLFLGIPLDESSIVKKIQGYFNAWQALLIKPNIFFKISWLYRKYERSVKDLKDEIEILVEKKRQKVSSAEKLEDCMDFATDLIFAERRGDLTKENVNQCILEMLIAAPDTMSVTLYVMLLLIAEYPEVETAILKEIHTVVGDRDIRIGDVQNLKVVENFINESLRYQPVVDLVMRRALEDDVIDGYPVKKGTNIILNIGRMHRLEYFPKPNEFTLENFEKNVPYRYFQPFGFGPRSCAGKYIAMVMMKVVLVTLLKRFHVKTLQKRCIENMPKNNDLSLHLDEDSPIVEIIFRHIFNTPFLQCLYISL
Test: isolated rat ovarian microsome aromatase inhibition (modified method of Brodie et al.)
Assay type: biochemical
Details: rat ovarian microsomes; substrate androstenedione 0.1 µM; [3H]-H2O release; NADPH generating system; read-out: concentration of inhibitor required to produce a 50% inhibition of enzyme activity (EC50)
Experimental: In this test system, ovarian microsomes are obtained from rats treated with pregnant mares serum gonadotropin. Test compounds are added to reaction vials containing […] 4-androstene-3,17-dione, 100,000 dpm 1,2[^3H]-androstenedione, the microsomes and a NADPH generating system. The concentrations of the inhibitors tested ranged between […]. […] Potency is determined based on the concentration of inhibitor in µM required to produce a 50% inhibition of enzyme activity (EC50) when the concentration of substrate (androstenedione) is 0.1 µM.

Work on CC(=O)N1CCN(c2ccc(OCC3COC(Cn4ccnc4)(c4ccc(Cl)cc4Cl)O3)cc2)CC1 (stereo not shown) [ketoconazole, 1-acetyl-4-[4-([2-(2,4-dichlorophenyl)-2-(1H-imidazol-1-ylmethyl)-1,3-dioxolan-4-yl]methoxy)-phenyl]piperazine] yielded an EC50 of 1100 nM.
